Data reported in PMC9448382, “Fluorosulfate-containing pyrazole heterocycles as selective BuChE inhibitors: structure-activity relationship and biological evaluation for the treatment of Alzheimer’s disease” (Journal of Enzyme Inhibition and Medicinal Chemistry, 2022).

How the values were obtained:
[1] = target: T1, recombinant human AChE (hAChE) (Homo sapiens, UniProt P22303); experiment: hAChE inhibition assay; type: biochemical
T1 construct: purchased Sigma C1682
Procedure: With 0.1 M pH 8 PBS, a DTNB solution (5 μM) was produced. Dissolve the test compound in DMSO to prepare a concentration of 2 × 10^−1 M stock solution. The solution was diluted in ethanol to five concentrations of 200, 100, 10, 1 and 0.1 μM, respectively. Measurement was carried out with 96-well plates, add 40 μL buffer, 10 μL test compound at a series of concentrations, and 10 μL AChE/BuChE in sequence. The mixture was then incubated at 37 °C for 10 min. Then add 20 μL DTNB, incubation at 37 °C for 10 min. […] For the blank value, 10 μL of ethanol was used instead of the inhibitor solution. The percentage of enzyme activity and the logarithm of compound concentration were used to express the inhibitory activity of compounds. IC50 was calculated by SPSS17.0.

male ICR mice = experiment: In vivo hepatotoxicity evaluation; parameters: species or system mouse
Procedure: . Mice were fasted for 24 h. Intragastrically, the combination was given at a dose of 30 mg/kg body weight with the same quantity of vehicle (po). […] A biochemical analyser was used to process the data (Hitachi 7020, Japan). Mice were slaughtered and livers were obtained for immunohistochemical morphological evaluation after the last sample of postglobular blood. We isolated two 3-mm sections of each liver from the hilum to the edge of the left lateral lobe using an ultra-thin semi-automatic microtome (LeicaRM2245, Germany), immediately placed them in 10% buffered formaldehyde, fixed them for 2 days, and embedded them in paraffin blocks using a paraffin-embedding station (LeicaEG1150H, Germany). Subsequently, five […] sections were prepared from these paraffin sections, deparaffinized, stained with haematoxylin and eosin (HE) or using the periodic acid-Schiff glycogen staining method.

[2] = test system: human normal liver cells LO2; experiment: Cytotoxicity MTT assay, L02 cells; conditions: 50 μM, 24 h
Procedure: Human hepatoblastoma cells HepG2 and human normal liver cells LO2 cells were cultured at 37 °C in DMEM containing 10% foetal bovine serum, 100 U/mL penicillin, and […] streptomycin in a humidified incubator with 5% CO2. The methyl thiazolyl tetrazolium (MTT) assay was used to assess cell cytotoxicity. In a 96-well plate, HepG2 cells and LO2 cells were injected at 1 × 10^4 cells per well. The cells were treated with various substances that were diluted in DMEM for 24 h after being cultivated for 24 h. The cells were then treated for 4 h with 20 µL 0.5 mg/mL MTT reagent. The cell culture was withdrawn after 4 h, and 150 µL DMSO were added to dissolve the formazan. […] Three independent tests were used to calculate cell viability.
Blank: cultured with fresh medium only.

Aβ1–42 = experiment: Brain Aβ1–42 total amount by mouse ELISA kit; type: in vivo; conditions: mice, Aβ1–42 icv model, K3 10 mg/kg po, donepezil 15 mg/kg po
Procedure: In the Aβ1–42 oligomeric damage experiment, all mice were sacrificed after the behavioural research was completed, and the brains were collected to assess the total content of Aβ1–42 using a mouse ELISA kit. Each brain tissue sample was thoroughly homogenised in a grinder with 10 times PBS (pH = 7.4 ± 0.1) before being centrifuged for 5 min at 5000×g. The supernatant was separated for use. The detection technique followed the directions exactly, and the standard curve was created. Brain tissue Aβ1–42 content was calculated according to the linear regression equation. All values were expressed as mean ± SEM using GraphPadPrism8.0 software.

in vitro = experiment: in vitro
Description: Based on prior work[40]^,[41], a parallel artificial membrane permeation assay (PAMPA) for the blood-brain barrier (BBB) was used to determine the ability of the test chemical to penetrate into the brain. Six commercial medicines were purchased from Aladdin Reagents to validate the methodology. Energy Chemical provided the DMSO and dodecane. Avanti Polar Lipids provided the porcine brain lipid (PBL). Millipore provided the donor 96-well filter microplate with a PVDF membrane (pore size […]) and the acceptor indented 96-well microplate. Corning Inc. provided the 96-well UV plate (COSTAR). DMSO was used to dissolve commercial medications and test compounds at a concentration of 20 mg/mL. They were then diluted 200 times in a solution of PBS (pH 7.4 ± 0.1)/EtOH (70/30, v/v) to achieve a final concentration of 100 µg/mL. The donor microplate's fifilter membrane was coated with 4 µL of PBL in dodecane (20 mg/mL). The donor wells were then filled with 200 µL of diluted chemical solution and 300 µL of PBS/EtOH (70/30, v/v). To make the membrane contact with buffer solution, the donor fifilter plate was carefully positioned on top of the acceptor plate to form a “sandwich” assembly. At 25 °C, the sandwich was left undisturbed. The donor plate was carefully removed after 18 h of incubation, and the concentrations of test chemicals in the donor and acceptor wells were quantified using a UV plate spectroscopic reader (PerkinElmer VICTOR Nivo, Finland). Each sample was analysed at three wavelengths, in at least three independent experiments, in four wells.
Pe, permeability, refers to the ability of compounds to permeate the membranes through passive diffusion in the blood-brain barrier penetration assays.

ICR mice = experiment: In vivo acute toxicity evaluation
Description: A total of 20 mice weighing 20‒25 g (F: M = 1: 1) were randomly allocated into two groups: control (n = 10) and experimental (n = 10). […] For two weeks, the mice's behaviour, appearance, and body weight changes were examined and documented. GraphPadPrism8.0 software was used to compare and summarise the body weights of the mice in the control and experimental groups.

BuChE from horse serum = target: T2, BuChE from horse serum (Equus caballus, UniProt P81908); experiment: biochemical; type: biochemical
T2 construct: BuChE from horse serum (C4290-1KU; Sigma); purchased Sigma C4290-1KU; host or cells: horse serum
Procedure: According to Ellman's method, assays were carried out on AChE from electric eel (C3389-500UN; Sigma) and BuChE from horse serum (C4290-1KU; Sigma). On a final volume of 500 μL, the experiment was carried out in 48-well plates. EeAChE or eqBuChE, 0.036 U/mL, and 0.1 M pH 8 phosphate buffer were added to each well. At 37 °C, they were pre-incubated for 20 min at various chemical concentrations. […] Along with the enzymatic breakdown of ACh or BuCh, the DTNB creates the yellow anion 5-thio-2-nitrobenzoic acid. In a Biotek Synergy HTX Multi-Mode reader, changes in absorbance were detected at 410 nm. Inhibition curves were used to calculate the IC50 values (log inhibitor concentration vs percent of inhibition). The same conditions were used in a control experiment without the inhibitor, and the blank comprised buffer, DMSO, DTNB, and substrate.
The IC50 values were calculated by SPSS 17.0.

[3] = ICR mice, intragastric, 1.0 g/kg, 14 days

T1 sequence (P22303 32-614): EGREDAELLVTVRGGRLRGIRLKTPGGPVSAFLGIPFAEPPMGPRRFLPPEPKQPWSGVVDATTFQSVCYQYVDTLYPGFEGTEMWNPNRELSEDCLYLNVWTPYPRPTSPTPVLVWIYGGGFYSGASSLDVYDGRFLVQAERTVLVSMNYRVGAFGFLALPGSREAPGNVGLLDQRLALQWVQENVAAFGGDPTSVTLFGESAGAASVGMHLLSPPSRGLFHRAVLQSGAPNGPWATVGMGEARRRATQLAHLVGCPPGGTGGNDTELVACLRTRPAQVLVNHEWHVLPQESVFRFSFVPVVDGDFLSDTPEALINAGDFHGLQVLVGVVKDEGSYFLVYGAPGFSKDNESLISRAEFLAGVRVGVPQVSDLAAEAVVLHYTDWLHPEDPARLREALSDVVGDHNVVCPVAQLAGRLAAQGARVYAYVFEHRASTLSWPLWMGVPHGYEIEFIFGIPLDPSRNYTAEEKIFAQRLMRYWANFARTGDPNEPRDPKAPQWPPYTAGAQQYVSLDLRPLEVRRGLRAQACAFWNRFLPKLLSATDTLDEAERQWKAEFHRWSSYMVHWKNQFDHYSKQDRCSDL
T2 sequence (P81908 whole entry): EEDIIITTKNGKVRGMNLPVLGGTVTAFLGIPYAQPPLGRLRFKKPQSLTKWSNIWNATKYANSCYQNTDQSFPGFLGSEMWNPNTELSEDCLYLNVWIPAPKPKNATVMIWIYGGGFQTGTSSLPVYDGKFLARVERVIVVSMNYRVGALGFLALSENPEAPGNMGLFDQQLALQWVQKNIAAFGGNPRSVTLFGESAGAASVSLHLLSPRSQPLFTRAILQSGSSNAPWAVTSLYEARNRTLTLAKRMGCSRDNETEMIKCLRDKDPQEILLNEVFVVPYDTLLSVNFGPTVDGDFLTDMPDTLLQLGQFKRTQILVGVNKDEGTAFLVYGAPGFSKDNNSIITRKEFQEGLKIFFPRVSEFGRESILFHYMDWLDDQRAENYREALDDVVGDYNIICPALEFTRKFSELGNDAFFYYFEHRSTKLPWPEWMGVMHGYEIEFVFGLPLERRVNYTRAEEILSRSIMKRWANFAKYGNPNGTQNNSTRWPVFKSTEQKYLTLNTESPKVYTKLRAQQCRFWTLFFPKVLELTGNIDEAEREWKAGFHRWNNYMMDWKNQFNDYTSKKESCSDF

O=S(=O)(F)Oc1cc(-c2ccccc2)nn1-c1ccc(Cl)cc1 [Compound K3]
inhibition at 20 µM [1]: 31.6 ± 5.74%
serum ALT and AST levels vs vehicle group (male ICR mice; 30 mg/kg po, 8, 22 and 36 h after single dosing): No significant difference
liver histomorphology (male ICR mice; 30 mg/kg, 36 h after administration): no core necrosis or evident steatosis
cell survival rate [2]: 94.4%
decrease of Aβ1–42 peptides in brain (Aβ1–42): 17.6%
Papp (in vitro; PAMPA, pH 7.4): 7.2 ×10⁻⁶ cm/s
Pe Exp. value (in vitro; PAMPA-BBB, 18 h, 25 °C, three independent experiments): above 4 ×10^-6cm/s
differences in body weight changes vs vehicle group (ICR mice; [3]): not significant
tolerability in single-dose acute toxicity assay (ICR mice; [3]): well tolerated
tolerated dose (ICR mice; mice, in vivo safety experiments): 1000 mg/kg
IC50 (BuChE from horse serum): 790 ± 320 nM
